Measured values published in article PMC7074166, “Screening for Small Molecule Modulators of Trypanosoma brucei Hsp70 Chaperone Activity Based upon Alcyonarian Coral-Derived Natural Products” (Marine Drugs, 2020).
Like-named read-outs stand apart in the source and are kept apart here.

Test system: bloodstream form T. b. brucei parasites
Experiment: Resazurin-based anti-trypanosomal assay on bloodstream form T. b. brucei parasites
Format: cell-based, Trypanosoma brucei brucei
Settings: for IC50: Trypanosoma brucei, 48 h
Protocol: Bloodstream form T. b. brucei Lister 927 variant 221 strain parasites were cultured in filter sterilized complete Iscoves Modified Dulbeccos Media (IMDM) based HM1-9 medium (IMDM base powder, […] sodium bicarbonate, 1 mM hypoxanthine, 1 mM sodium pyruvate, 0.16 mM thymidine, 0.05 mM bathocuprone sulphate acid, 10% (v/v) heat inactivated foetal bovine serum, 1.5 mM L-cysteine, 0.2 mM β-mercaptoethanol, pH 7.5) in a humidified chamber at 37 °C with an atmosphere of 5% CO2. Parasite growth was monitored using a Neubauer haemocytometer to count the cell number, after which cells were diluted, according to their density, in the described pre-warmed media.
All compounds of interest were resuspended to stocks of 30 mM in DMSO and stored at −80 °C prior to use in in vitro experiments. For assessment of anti-trypanosomal activity, compounds were added to in vitro cultures of bloodstream form T. b. brucei parasites (1 × 10^5 cells/mL) in 96-well plates at a fixed concentration of 20 μM. After an incubation period of 48 h, the number of parasites surviving drug exposure were determined using a resazurin-based cytotoxicity assay. Resazurin is an oxidation–reduction sensitive dye that is reduced by living cells to resorufin. Resorufin is a fluorophore (Excitation560/Emission590) and thus was quantified in a multi-well fluorescence plate reader. Results are expressed as % parasite viability—the resorufin fluorescence in small molecule-treated wells relative to untreated controls. Assessment of each small molecule was conducted in duplicate, with error bars representing standard deviation (SD). […] The compounds were added to in vitro cultures of bloodstream form T. b. brucei parasites (1 × 10^5 cells/mL) in 96-well plates in a 3-fold dilution series with 100 μM as the highest concentration. After an incubation period of 48 h, the number of parasites surviving drug exposure were determined as previously mentioned. The % parasite viability was determined as previously mentioned. The IC50 (the concentration of compound required to decrease cell viability of T. b. brucei parasites by 50% compared to those grown in the absence of the compound) values for each of the compounds were determined from a dose–response curve by non-linear regression generated using GraphPad Prism® (v. 7.0; San Diego, CA, USA) software. For comparative purposes, pentamidine at a fixed concentration of 1 μM was employed as a drug standard.

[1] = Table 1, T. b. brucei parasites cultured in vitro, dose-response, read-out: IC50/μM
[2] = Table S1, 48 select compounds, T. b. brucei, read-out: IC50/

Row | SMILES | anti-trypanosomal activity (SAR statement) (T. b. brucei, screen at 20 μM) | IC50 [1] | IC50 [2]
1 | CC(C)=CCC/C(C)=C/CCC(C)=CCNC=O [Compound 75, N-((6E)-3,7,11-trimethyldodeca-2,6,10-trien-1-yl)formamide] | inactive | – | –
2 | CC(C)=CCC/C(C)=C/CCC(C)=CCn1cnc(N(C)C)c2ncnc1-2 [Compound 12, N,N-dimethyl-3-((6E)-3,7,11-trimethyldodeca-2,6,10-trien-1-yl)-3H-purin-6-amine] | – | 14 µM | –
3 | CC(C)=CCC/C(C)=C/CC12NC(=O)N=C1N(C)C(=O)N(C)C2=O (stereo not drawn) [Compound 42, (E)-5-(3,7-Dimethylocta-2,6-dien-1-yl)-1,3-dimethyl-5,7-dihydro-1H-purine-2,6,8(3H)-trione] | – | 10.9 µM | 10.9 µM
4 | CC(C)=CCC/C(C)=C/CC/C(C)=C/CC/C(C)=C\CNC=O [Compound 76, N-((2Z,6E,10E)-3,7,11,15-Tetramethylhexadeca-2,6,10,14-tetraen-1-yl)formamide] | – | 11 µM | 11 µM
5 | CC(C)=CCC/C(C)=C/CC/C(C)=C/CC/C(C)=C/Cn1cnc2c(Cl)ncnc21 [Compound 19, 6-Chloro-9-((2E,6E,10E)-3,7,11,15-tetramethylhexadeca-2,6,10,14-tetraen-1-yl)-9H-purine] | – | 6.8 µM | 6.79 µM
6 | CC(C)=CCC/C(C)=C/Cn1cnc2c(Cl)ncnc21 [Compound 15, (E)-6-Chloro-9-(3,7-dimethylocta-2,6-dien-1-yl)-9H-purine] | – | 12.2 µM | 12.2 µM
7 | CC(C)=CCC/C(C)=C/CC/C(C)=C/CC/C(C)=C/Cn1cnc2ncnc(Cl)c21 [Compound 20, 6-chloro-7-((2E,6E,10E)-3,7,11,15-tetramethylhexadeca-2,6,10,14-tetraen-1-yl)-7H-purine] | – | 11 µM | 11 µM
8 | CC(=O)NC/C=C(\C)CC/C=C(\C)CC/C=C(\C)CCC=C(C)C [Compound 85, N-((2E,6E,10E)-3,7,11,15-tetramethylhexadeca-2,6,10,14-tetraen-1-yl)acetamide] | – | 3.1 µM | 3.14 µM
9 | CC(C)=CCC/C(C)=C/Cn1cnc2c(N(C)C)ncnc21 [Compound 9, (E)-9-(3,7-Dimethylocta-2,6-dien-1-yl)-N,N-dimethyl-9H-purin-6-amine] | – | 28.4 µM | 28.4 µM
10 | CC(C)=CCC/C(C)=C/CC/C(C)=C/CC/C(C)=C/Cn1cnc2c(N)ncnc21 [Compound 8, 9-((2E,6E,10E)-3,7,11,15-Tetramethylhexadeca-2,6,10,14-tetraen-1-yl)-9H-purin-6-amine] | – | 13.4 µM | 13.4 µM
11 | CC(C)=CCC/C(C)=C/CC/C(C)=C/CC/C(C)=C\Cn1cnc2c1c(=O)n(C)c(=O)n2C [Compound 36, 1,3-Dimethyl-7-((2Z,6E,10E)-3,7,11,15-tetramethylhexadeca-2,6,10,14-tetraen-1-yl)-3,7-dihydro-1H-purine-2,6-dione] | – | 5.2 µM | 5.17 µM
12 | CC(C)=CCC/C(C)=C/CCC(C)=CCn1ccnc1 [Compound 71, 1-((6E)-3,7,11-Trimethyldodeca-2,6,10-trien-1-yl)-1H-imidazole] | – | 26.8 µM | 26.8 µM
13 | CC(C)=CCC/C(C)=C/CC/C(C)=C/CC/C(C)=C/CN1C(=O)c2ccccc2C1=O [Compound 69, 2-((2E,6E,10E)-3,7,11,15-Tetramethylhexadeca-2,6,10,14-tetraen-1-yl)isoindoline-1,3-dione] | – | 9.2 µM | 9.16 µM
14 | CC(C)=CCC/C(C)=C/CC/C(C)=C/CC/C(C)=C/Cn1cc(C)c(=O)[nH]c1=O [Compound 59, 5-Methyl-1-((2E,6E,10E)-3,7,11,15-tetramethylhexadeca-2,6,10,14-tetraen-1-yl)pyrimidine-2,4(1H,3H)-dione] | – | 15.8 µM | –
15 | CC(C)=CCC/C(C)=C/CCC(C)=CCn1cnc(N)c2ncnc1-2 [Compound 6, 3-((6E)-3,7,11-Trimethyldodeca-2,6,10-trien-1-yl)-3H-purin-6-amine] | – | 12.7 µM | 12.7 µM
16 | CC(C)=CCC/C(C)=C/CC/C(C)=C/CC/C(C)=C/Cn1cnc2c(cnn2C/C=C(\C)CC/C=C(\C)CC/C=C(\C)CCC=C(C)C)c1=O [Compound 50, 1,5-Bis((2E,6E,10E)-3,7,11,15-tetramethylhexadeca-2,6,10,14-tetraen-1-yl)-1,5-dihydro-4H-pyrazolo[3,4-d]pyrimidin-4-one] | – | 2.1 µM | 2.07 µM
17 | CC(C)=CCC/C(C)=C/CC/C(C)=C/CC/C(C)=C/Cn1cnc2c1c(=O)[nH]c(=O)n2C [Compound 33, 3-methyl-7-((2E,6E,10E)-3,7,11,15-tetramethylhexadeca-2,6,10,14-tetraen-1-yl)-3,7-dihydro-1H-purine-2,6-dione] | – | 10.2 µM | 10.2 µM
18 | CC(=O)N(C)C/C=C(\C)CC/C=C(\C)CC/C=C(\C)CCC=C(C)C [Compound 88, N-Methyl-N-((2E,6E,10E)-3,7,11,15-tetramethylhexadeca-2,6,10,14-tetraen-1-yl)acetamide] | – | 38.4 µM | –
19 | CC(C)=CCC/C(C)=C/CCC(C)=CCn1cnc2c(N(C)C)ncnc21 [Compound 11, N,N-Dimethyl-9-((6E)-3,7,11-trimethyldodeca-2,6,10-trien-1-yl)-9H-purin-6-amine] | – | 9.5 µM | 9.48 µM
20 | CC(C)=CCC/C(C)=C/CC/C(C)=C/CC/C(C)=C/CN(C)C=O [Compound 80, N-Methyl-N-((2E,6E,10E)-3,7,11,15-tetramethylhexadeca-2,6,10,14-tetraen-1-yl)formamide] | – | 41.2 µM | 41.2 µM
21 | CC(C)=CCC/C(C)=C/CC/C(C)=C/CC/C(C)=C\Cn1cnc2c(N(C)C)ncnc21 [Compound 13, N,N-Dimethyl-9-((2Z,6E,10E)-3,7,11,15-tetramethylhexadeca-2,6,10,14-tetraen-1-yl)-9H-purin-6-amine] | – | 8.7 µM | 8.69 µM
22 | CC(C)=CCC/C(C)=C/CC/C(C)=C/CC/C(C)=C\Cn1cnc2ncnc(Cl)c21 [Compound 21, 6-chloro-7-((2Z,6E,10E)-3,7,11,15-tetramethylhexadeca-2,6,10,14-tetraen-1-yl)-7H-purine] | – | 19.1 µM | 19.1 µM
23 | CC(C)=CCC/C(C)=C/CC/C(C)=C/CC/C(C)=C\Cn1cnc2c1c(=O)[nH]c(=O)n2C [Compound 32, 3-Methyl-7-((2Z,6E,10E)-3,7,11,15-tetramethylhexadeca-2,6,10,14-tetraen-1-yl)-3,7-dihydro-1H-purine-2,6-dione] | – | 5.9 µM | –
24 | CC(C)=CCC/C(C)=C/CC/C(C)=C\CNC=O [Compound 74, N-((2Z,6E)-3,7,11-Trimethyldodeca-2,6,10-trien-1-yl)formamide] | – | 27.3 µM | 27.3 µM
25 | CC(C)=CCC/C(C)=C/CCC(C)=CCn1cnc2c(N)ncnc21 [Compound 7, 9-((6E)-3,7,11-trimethyldodeca-2,6,10-trien-1-yl)-9H-purin-6-amine] | – | 47.7 µM | 47.7 µM
26 | CC(C)=CCC/C(C)=C/CC/C(C)=C/CC/C(C)=C\Cn1ccc(=O)[nH]c1=O [Compound 56, 1-((2Z,6E,10E)-3,7,11,15-Tetramethylhexadeca-2,6,10,14-tetraen-1-yl)pyrimidine-2,4(1H,3H)-dione] | – | 6.2 µM | –
27 | CC(=O)NC/C=C(\C)CC/C=C(\C)CCC=C(C)C [Compound 83, N-((2E,6E)-3,7,11-trimethyldodeca-2,6,10-trien-1-yl)acetamide] | – | 21.5 µM | 21.5 µM
